As a reminder, the Papp A→B is the apparent permeability from the apical to the basolateral side of a cell layer. In general, Papp B→A refers to the apparent permeability from the basolateral to the apical side of a cell layer.

Papp A→B, Papp B→A and efflux ratio data for 21 compounds are collected here from patent publication US12102648B2, “Orally-bioavailable nucleoside analogs” (priority 2021, dated 2024).

The series can be described thus: in vitro. In kind it is in vitro ADME. Particulars: human. In a few lines: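 Permeability measured in both directions across 19-day Caco-2 layers with TEER above 600 […], incubated at 37° C without shaking; donor and receiver sampled at 10 and 90 min for LC/MS/MS. Derived values: Papp (cm/s), efflux ratio, recovery.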
Setting [1] is: Caco-2 monolayer, apical to basolateral, 90-minute incubation, read-out: Papp, A-B.
The mark [2] stands for this setting: Caco-2 monolayer, basolateral to apical, 90-minute incubation, read-out: Papp, B-A.
Setting [3] is: Caco-2 monolayer, ER>2 indicates potential efflux transporter substrate, read-out: ER (efflux ratio).

Like-named read-outs stand apart in the source and are kept apart here.

Turning to `CC1(CC(=O)OC[C@H]2O[C@@](C#N)(c3ccc4c(N)ncnn34)[C@H](O)[C@@H]2O)CCCCC1` [Compound 273, ((2R,3S,4R,5R)-5-(4-aminopyrrolo[2,1-f][1,2,4]triazin-7-yl)-5-cyano-3,4-dihydroxytetrahydrofuran-2-yl)methyl 2-(1-methylcyclohexyl)acetate], under “Caco-2”, the apparent permeability from apical to basolateral (Papp A→B) at 90 min came to 3.7 ×10⁻⁶ cm/s, the Papp B→A at 90 min amounted to 3.2 ×10⁻⁶ cm/s and the efflux ratio at 90 min was 0.85.
For `CCCCC(=O)Nc1ncnn2c([C@]3(C#N)O[C@H](COC(=O)CC4CCCCC4)[C@@H](O)[C@H]3O)ccc12` [Compound 284, ((2R,3S,4R,5R)-5-cyano-3,4-dihydroxy-5-(4-pentanamidopyrrolo[2,1-f][1,2,4]triazin-7-yl)tetrahydrofuran-2-yl)methyl 2-cyclohexylacetate], in that order: 1.7 ×10⁻⁶ cm/s, 0.95 ×10⁻⁶ cm/s and 0.56.
Regarding `CC(C)[C@H](N)C(=O)Nc1ncnn2c([C@]3(C#N)O[C@H](COC(=O)Cc4ccccc4)[C@@H](O)[C@H]3O)ccc12` [Compound 113], the apical-to-basolateral permeability (Papp A→B) at 90 min under setting [1] worked out at 0.01 ×10⁻⁶ cm/s. Under setting [2], the Papp B→A at 90 min amounted to 4.8 ×10⁻⁶ cm/s. Further, the efflux ratio at 90 min under setting [3] was found to be 320.
For `CS(=O)(=O)N1CCC(CC(=O)OC[C@H]2O[C@@](C#N)(c3ccc4c(N)ncnn34)[C@H](O)[C@@H]2O)CC1` [Compound 268, ((2R,3S,4R,5R)-5-(4-aminopyrrolo[2,1-f][1,2,4]triazin-7-yl)-5-cyano-3,4-dihydroxytetrahydrofuran-2-yl)methyl 2-(1-(methylsulfonyl)piperidin-4-yl)acetate], for the setting “Caco-2”, the apical-to-basolateral permeability (Papp A→B) at 90 min amounted to 0.04 ×10⁻⁶ cm/s, the basolateral-to-apical permeability (Papp B→A) at 90 min came to 1.8 ×10⁻⁶ cm/s and the efflux ratio at 90 min was 45.
For `CCC(=O)O[C@H]1[C@@H](O)[C@](C#N)(c2ccc3c(N)ncnn23)O[C@@H]1COC(=O)CC1CCCCC1` [Compound 31, (2R,3S,4R,5R)-5-(4-aminopyrrolo[2,1-f][1,2,4]triazin-7-yl)-5-cyano-2-((2-cyclohexylacetoxy)methyl)-4-hydroxytetrahydrofuran-3-yl propionate], in that order: 5.6 ×10⁻⁶ cm/s, 5.6 ×10⁻⁶ cm/s and 1.
For `CC(C)[C@H](N)C(=O)OC[C@H]1O[C@@](C#N)(c2ccc3c(NC(=O)c4ccccc4)ncnn23)[C@H](O)[C@@H]1O` [Compound 102, ((2R,3S,4R,5R)-5-(4-benzamidopyrrolo[2,1-f][1,2,4]triazin-7-yl)-5-cyano-3,4-dihydroxytetrahydrofuran-2-yl)methyl L-valinate], in that order: 0.02 ×10⁻⁶ cm/s, 6.7 ×10⁻⁶ cm/s and 280.
For `N#C[C@@]1(c2ccc3c(NC(=O)[C@@H](N)Cc4ccc(F)cc4)ncnn23)O[C@H](COC(=O)CC2CCCCC2)[C@@H](O)[C@H]1O` [Compound 96, ((2R,3S,4R,5R)-5-(4-((S)-2-amino-3-(4-fluorophenyl)propanamido)pyrrolo[2,1-f][1,2,4]triazin-7-yl)-5-cyano-3,4-dihydroxytetrahydrofuran-2-yl)methyl 2-cyclohexylacetate], in that order: 0.45 ×10⁻⁶ cm/s, 5.2 ×10⁻⁶ cm/s and 12.
`CC(C)C(=O)O[C@H]1[C@@H](O)[C@](C#N)(c2ccc3c(N)ncnn23)O[C@@H]1COC(=O)Cc1ccccc1` [Compound 46, (2R,3S,4R,5R)-5-(4-aminopyrrolo[2,1-f][1,2,4]triazin-7-yl)-5-cyano-4-hydroxy-2-((2-phenylacetoxy)methyl)tetrahydrofuran-3-yl isobutyrate]: the apical-to-basolateral permeability (Papp A→B) at 90 min under setting [1] turned out to be 2.7 ×10⁻⁶ cm/s. Further, the basolateral-to-apical permeability (Papp B→A) at 90 min under setting [2] came out at 4.8 ×10⁻⁶ cm/s. For the same compound, under setting [3], the efflux ratio at 90 min amounted to 1.8.
For the compound `CNc1nc(N)nc2c1ncn2[C@@H]1O[C@H](COC(=O)C(C)C)[C@@H](O)[C@@]1(C)F` [Compound 3, ((2R,3R,4R,5R)-5-(2-amino-6-(methylamino)-9H-purin-9-yl)-4-fluoro-3-hydroxy-4-methyltetrahydrofuran-2-yl)methyl isobutyrate], for the setting “Caco-2”, the Papp A→B at 90 min worked out at 1.8 ×10⁻⁶ cm/s, the Papp B→A at 90 min was determined as 3.5 ×10⁻⁶ cm/s and the efflux ratio at 90 min was 2.
As to `CCCCC(=O)Nc1ncnn2c([C@]3(C#N)O[C@H](COC(=O)[C@@H](N)C(C)C)[C@@H](O)[C@H]3O)ccc12` [Compound 341, ((2R,3S,4R,5R)-5-cyano-3,4-dihydroxy-5-(4-pentanamidopyrrolo[2,1-f][1,2,4]triazin-7-yl)tetrahydrofuran-2-yl)methyl L-valinate], where the note is “Caco-2”, the Papp A→B at 90 min was 0.13 ×10⁻⁶ cm/s, the basolateral-to-apical permeability (Papp B→A) at 90 min amounted to 2.3 ×10⁻⁶ cm/s and the efflux ratio at 90 min stood at 18.
On to `CCCCCOC(=O)Nc1ncnn2c([C@]3(C#N)O[C@H](COC(=O)CC)[C@@H](O)[C@H]3O)ccc12` [Compound 91, ((2R,3S,4R,5R)-5-cyano-3,4-dihydroxy-5-(4-(((pentyloxy)carbonyl)amino)pyrrolo[2,1-f][1,2,4]triazin-7-yl)tetrahydrofuran-2-yl)methyl propionate], for which the apical-to-basolateral permeability (Papp A→B) at 90 min under setting [1] amounted to 1.9 ×10⁻⁶ cm/s. Also, under setting [2], the apparent permeability from basolateral to apical (Papp B→A) at 90 min turned out to be 4.1 ×10⁻⁶ cm/s. In addition, under setting [3], the efflux ratio at 90 min was 2.1.
For `CC1(C)CCC(CC(=O)OC[C@H]2O[C@@](C#N)(c3ccc4c(N)ncnn34)[C@H](O)[C@@H]2O)CC1` [Compound 272, ((2R,3S,4R,5R)-5-(4-aminopyrrolo[2,1-f][1,2,4]triazin-7-yl)-5-cyano-3,4-dihydroxytetrahydrofuran-2-yl)methyl 2-(4,4-dimethylcyclohexyl)acetate], for the setting “Caco-2”, the apical-to-basolateral permeability (Papp A→B) at 90 min was 1.2 ×10⁻⁶ cm/s, the Papp B→A at 90 min was determined as 0.64 ×10⁻⁶ cm/s and the efflux ratio at 90 min was 0.52.
For `CNc1nc(NC(=O)CC(C)C)nc2c1ncn2[C@@H]1O[C@H](COC(C)=O)[C@@H](OC(=O)CC(C)C)[C@@]1(C)F` [Compound 332, (2R,3R,4R,5R)-2-(acetoxymethyl)-4-fluoro-4-methyl-5-(6-(methylamino)-2-(3-methylbutanamido)-9H-purin-9-yl)tetrahydrofuran-3-yl 3-methylbutanoate] the same measures were 11 ×10⁻⁶ cm/s, 2.6 ×10⁻⁶ cm/s and 0.22.
Regarding `CCCCCOC(=O)Nc1ncnn2c([C@]3(C#N)O[C@H](COC(=O)Cc4ccccc4)[C@@H](O)[C@H]3O)ccc12` [Compound 89, ((2R,3S,4R,5R)-5-cyano-3,4-dihydroxy-5-(4-(((pentyloxy)carbonyl)amino)pyrrolo[2,1-f][1,2,4]triazin-7-yl)tetrahydrofuran-2-yl)methyl 2-phenylacetate], the Papp A→B at 90 min under setting [1] amounted to 2.1 ×10⁻⁶ cm/s. Also, under setting [2], the Papp B→A at 90 min amounted to 6.6 ×10⁻⁶ cm/s. Moreover, the efflux ratio at 90 min under setting [3] was determined as 3.2.
Regarding `CNc1nc(N)nc2c1ncn2[C@@H]1O[C@H](COC(C)=O)[C@@H](OC(=O)CC2CCCCC2)[C@@]1(C)F` [Compound 194, (2R,3R,4R,5R)-2-(acetoxymethyl)-5-(2-amino-6-(methylamino)-9H-purin-9-yl)-4-fluoro-4-methyltetrahydrofuran-3-yl 2-cyclohexylacetate], for the setting “Caco-2”, the Papp A→B at 90 min is 12 ×10⁻⁶ cm/s, the Papp B→A at 90 min amounted to 2.1 ×10⁻⁶ cm/s and the efflux ratio at 90 min is 0.18.
On to `CC(C)CC(=O)O[C@H]1[C@@H](O)[C@](C#N)(c2ccc3c(N)ncnn23)O[C@@H]1COC(=O)Cc1ccccc1` [Compound 41, (2R,3S,4R,5R)-5-(4-aminopyrrolo[2,1-f][1,2,4]triazin-7-yl)-5-cyano-4-hydroxy-2-((2-phenylacetoxy)methyl)tetrahydrofuran-3-yl 3-methylbutanoate], for which the Papp A→B at 90 min under setting [1] stood at 19 ×10⁻⁶ cm/s. In addition, under setting [2], the Papp B→A at 90 min stood at 31 ×10⁻⁶ cm/s. The efflux ratio at 90 min under setting [3] turned out to be 1.6.
In the case of `CC(=O)OC[C@H]1O[C@@](C#N)(c2ccc3c(N)ncnn23)[C@H](O)[C@@H]1O` [Compound 13, ((2R,3S,4R,5R)-5-(4-aminopyrrolo[2,1-f][1,2,4]triazin-7-yl)-5-cyano-3,4-dihydroxytetrahydrofuran-2-yl)methyl acetate], where the note is “Caco-2”, the Papp A→B at 90 min amounted to 0.2 ×10⁻⁶ cm/s, the apparent permeability from basolateral to apical (Papp B→A) at 90 min came to 0.6 ×10⁻⁶ cm/s and the efflux ratio at 90 min came to 2.7.
Regarding `CC(C)(C)[C@H](N)C(=O)OC[C@H]1O[C@@](C#N)(c2ccc3c(N)ncnn23)[C@H](O)[C@@H]1O` [Compound 410, ((2R,3S,4R,5R)-5-(4-aminopyrrolo[2,1-f][1,2,4]triazin-7-yl)-5-cyano-3,4-dihydroxytetrahydrofuran-2-yl)methyl (S)-2-amino-3,3-dimethylbutanoate], under “Caco-2”, the Papp A→B at 90 min amounted to 0.47 ×10⁻⁶ cm/s, the Papp B→A at 90 min was found to be 1.49 ×10⁻⁶ cm/s and the efflux ratio at 90 min turned out to be 3.2.
Take `CC(=O)OC[C@H]1O[C@@](C#N)(c2ccc3c(N)ncnn23)[C@H](O)[C@@H]1OCOC(=O)C(C)(C)C` [Compound 56, {[(2R,3S,4R,5R)-2-[(acetyloxy)methyl]-5-{4-aminopyrrolo[2,1-f][1,2,4]triazin-7-yl}-5-cyano-4-hydroxyoxolan-3-yl]oxy}methyl 2,2-dimethylpropanoate]: for the setting “Caco-2”, the apparent permeability from apical to basolateral (Papp A→B) at 90 min was 4.7 ×10⁻⁶ cm/s, the Papp B→A at 90 min amounted to 4 ×10⁻⁶ cm/s and the efflux ratio at 90 min is 0.84.
As for `CCCCC(=O)Nc1ncnn2c([C@]3(C#N)O[C@H](COC(=O)Cc4ccccc4)[C@@H](O)[C@H]3O)ccc12` [Compound 277, ((2R,3S,4R,5R)-5-cyano-3,4-dihydroxy-5-(4-pentanamidopyrrolo[2,1-f][1,2,4]triazin-7-yl)tetrahydrofuran-2-yl)methyl 2-phenylacetate], the apparent permeability from apical to basolateral (Papp A→B) at 90 min under setting [1] came out at 0.47 ×10⁻⁶ cm/s. In addition, the Papp B→A at 90 min under setting [2] is 5.4 ×10⁻⁶ cm/s. In addition, the efflux ratio at 90 min under setting [3] came out at 12.
Turning to `CCCCC(=O)Nc1ncnn2c([C@]3(C#N)O[C@H](COC(=O)CC)[C@@H](O)[C@H]3O)ccc12` [Compound 282, ((2R,3S,4R,5R)-5-cyano-3,4-dihydroxy-5-(4-pentanamidopyrrolo[2,1-f][1,2,4]triazin-7-yl)tetrahydrofuran-2-yl)methyl propionate], the Papp A→B at 90 min under setting [1] worked out at 0.72 ×10⁻⁶ cm/s. Also, the Papp B→A at 90 min under setting [2] amounted to 4.1 ×10⁻⁶ cm/s. Further, under setting [3], the efflux ratio at 90 min is 5.6.
